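Five compound concentrations were applied to cells in 96-well plates for 48 hours; endpoints were derived by simple linear interpolation of the resulting dose-response curve. GI50 = concentration required for 50% inhibition of growth. TGI marks complete inhibition of growth.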

Common to all, as to test: NCI-60 cell line screen, 48 h
In assay [1] the test system is 786-0 renal.
For assay [2], the system named is HL-60(TB) leukemia.
Assay [3] deals with K-562 leukemia.
Assay [4] deals with NCI-H226 lung.
For assay [5], the system named is NCI-H522 lung.
Assay [6] has as its system OVCAR-5 ovarian.
The test system of assay [7] is PC-3 prostate.
Assay [8] deals with RXF 393 renal.
The subject of assay [9] is SK-OV-3 ovarian.
The test system of assay [10] is UO-31 renal.

For `Cn1c(=O)c(Oc2ccc(F)cc2F)cc2cnc(NC3CCC(O)CC3)nc21` (stereo not given), the GI50 in assay [1] was above 25 µM; in [2], above 25000 nM; in [3], above 25 µM; in assay [4] it was above 25 µM; in assay [5], above 25000 nM; in [6] it was above 25 µM. Also, the GI50 in assay [7] was above 25 µM; in [8], above 25 µM; in [9] it was above 25 µM; in [10], 12.1 µM. Besides, the TGI in [1], in assay [2], in assay [3], in assay [4], in [5] and in [6] was above 25 µM each time. In addition, the TGI in assay [7], in assay [8], in [9] and in assay [10] was above 25 µM in each case.
As to `COC(=O)c1ccccc1NCc1cc(O)ccc1O`, the TGI in assay [1] is 31.7 µM; in assay [2], above 42.8 µM; in assay [3] it was above 59 µM; in assay [4], 65.3 µM; in assay [5], 6.75 µM; in [6] it was above 62.1 µM. Besides, the TGI in [7] is 33.6 µM; in [8], 30.3 µM; in [9], above 100 µM; in [10], 31.9 µM.
For the compound `COC(=O)/C(=C/c1ccc(OC)cc1)c1cc(OC)c(OC)c(OC)c1`, the TGI in [1] is above 86 µM; in assay [2] it was 3.06 µM; in [3], above 58.4 µM; in assay [4] it was 42.3 µM; in assay [5], 4.58 µM; in assay [6] it was above 100 µM. The TGI in assay [7] was above 100 µM; in assay [8] it was 3.38 µM; in [9], 40.4 µM; in [10], 74.9 µM.
Turning to `CC(C)(CCc1nc2ccccc2[nH]1)C(=O)O`, the TGI in assay [1], in assay [2], in assay [3], in assay [4], in assay [5] and in [6] was above 100 µM in each case. Further, the TGI in assay [7], in assay [8], in assay [9] and in assay [10] was above 100 µM each time.
For `COc1ccc(-c2ccc(/C=N/n3c(COc4ccc(Cl)c(C)c4)nn(CN4CCOCC4)c3=S)o2)c([N+](=O)[O-])c1`, the GI50 is 32.5 µM in assay [1]; 24100 nM in assay [2]; 20.4 µM in assay [3]; above 100 µM in [4]; 25500 nM in assay [5]; 33.2 µM in assay [6]. Also, the GI50 in assay [7] is 17.7 µM; in [8], 19.1 µM; in assay [9], 34.4 µM; in [10] it was 28.8 µM. The TGI in assay [1] is above 100 µM; in assay [2], 50.9 µM; in assay [3], 51.7 µM; in assay [4] it was above 100 µM; in assay [5], above 100 µM; in [6], above 100 µM. For the same compound, the TGI was 51.1 µM in [7], 52.7 µM in assay [8], above 100 µM in assay [9] and above 100 µM in assay [10].
Consider `Clc1ccc(N=CNc2ccc(-c3nc4ccccc4[nH]3)cc2)cc1`, for which the GI50 in assay [1] is 68.1 µM; in assay [2], 631 nM; in assay [3] it was 1.56 µM; in [4], 65.4 µM; in [5], above 100000 nM; in assay [6], above 100 µM. Besides, the GI50 in [7] is above 100 µM; in [8], above 100 µM; in [9], above 100 µM; in assay [10] it was 13.9 µM. The TGI in assay [1] is above 100 µM; in [2], above 100 µM; in assay [3], 17.2 µM; in assay [4], above 100 µM; in assay [5], above 100 µM; in [6], above 100 µM. The TGI in assay [7], in assay [8], in assay [9] and in [10] was above 100 µM in each case.
With `CC(=O)OC1CCC2(C)C(=CCC3C4CC(CN5CC5)C(=O)C4(C)CCC32)C1` (stereo not given), the GI50 in assay [1] is 7.91 µM; in assay [2], 4120 nM; in [3] it was 3.33 µM; in assay [4], 14.8 µM; in assay [5], 1520 nM; in assay [6], 17.3 µM. For the same compound, the GI50 was 12.7 µM in assay [7], 9.77 µM in [8], 15.6 µM in assay [9] and 2.99 µM in assay [10]. Besides, the TGI is 20.9 µM in assay [1]; 16.8 µM in assay [2]; 14.2 µM in assay [3]; 40.2 µM in assay [4]; 3.26 µM in assay [5]; 33.2 µM in assay [6]. Moreover, the TGI in assay [7] came to 26.8 µM; in assay [8], 24.1 µM; in assay [9], 29.6 µM; in assay [10] it was 10.4 µM.
On to `C/C(=N\NC(=O)c1ccncc1)c1ccccc1O`, for which the GI50 is 2.94 µM in [1]; 2960 nM in [2]; 5.78 µM in [3]; 6.27 µM in [4]; 2820 nM in assay [5]; 4.87 µM in assay [6]. The GI50 in [7] was 8.66 µM; in assay [8], 8.15 µM; in assay [9] it was 4.84 µM; in assay [10], 0.973 µM. Besides, the TGI in assay [1] is 21.3 µM; in assay [2] it was 11.6 µM; in assay [3] it was above 100 µM; in assay [4], above 100 µM; in assay [5], above 100 µM; in assay [6] it was above 100 µM. Besides, the TGI was above 100 µM in assay [7], above 100 µM in assay [8], above 100 µM in assay [9] and 28.9 µM in assay [10].
As to `CCC(=C(c1ccc(OCCN(CC)CC)cc1)c1ccc(OCCN(CC)CC)cc1)c1ccc(Cl)cc1`, the GI50 in [1] is 0.565 µM; in assay [2], 626 nM; in assay [3], 0.156 µM; in assay [4], 0.679 µM; in assay [5], 564 nM; in assay [6] it was 0.559 µM. Also, the GI50 in assay [7] is 0.581 µM; in assay [8], 0.485 µM; in assay [9], 0.594 µM; in assay [10], 0.484 µM. Also, the TGI in assay [1] came to 1.08 µM; in assay [2], 1.32 µM; in assay [3], 0.898 µM; in assay [4] it was 1.48 µM; in assay [5], 1.21 µM; in assay [6], 1.06 µM. The TGI in assay [7] is 1.24 µM; in assay [8], 0.962 µM; in [9], 1.16 µM; in assay [10], 0.94 µM.

Values taken from PubChem BioAssay (NCI).
